Experimental data published in patent US20200297711A1, “PHARMACEUTICAL COMPOSITION COMPRISING FGFR SELECTIVE TYROSINE KINASE INHIBITOR” (priority 2017, published 2020).

Columns and labels:
[1] = Dose escalation study: tolerability and safety (DLT, MTD, treatment emergent adverse events) of orally administered Compound A 1.5 succinate in patients with solid tumor; format: in vivo
Procedure: The following study was carried out in order to evaluate tolerability and safety when Compound A 1.5 succinate was orally administered to patients with solid tumor. We attempted to determine the maximum tolerated dose (MTD) by evaluating the dose limiting toxicity (DLT) when Compound A 1.5 succinate was orally administered to patients with solid tumor. Each dose in Examples is represented as a dose of Compound A in free form.
A Modified Toxicity Probability Interval (mTPI) design was employed to determine the MTD of Compound A. Each subject was assigned a dose of Compound A in accordance with the rules of the mTPI design based on a target dose-limiting toxicity (DLT) rate of 25% and the corresponding three toxicity probability intervals that was defined as 20 to 30% (proper dosing), 0 to 20% (underdosing) and 30 to 100% (overdosing). The entire dose assignment decision rule can be precalculated under the mTPI design and presented in two-way table as below.
In order to evaluate the PK when administered as a single dose, a single dose of Compound A for each treatment group (at the corresponding dosage for that group) was administered on Day 1. Compound A was administered when fasted, immediately after waking up with at least 10 hours fasting. Taking any meal was prohibited for 2 hours after administration and only drinking water was allowed.
Cycle 1 was started between 8 and 10 days after dosing in Cycle 0 and Compound A was administered continuously once daily. Compound A was administered at least 2 hours after breakfast, and any food intake was prohibited for 1 hour after administration. However, on Day 8 of Cycle 1, Compound A was administered immediately after waking up while the subject was fasted after at least 10 hours of overnight fasting in order to evaluate the PK. Taking any meals was prohibited for 2 hours after administration and only drinking water was allowed.
• (1) Grade 4 neutropenia that persists for more than 7 days or febrile neutropenia • (2) Grade 4 thrombocytopenia or Grade 3 thrombocytopenia that requires blood transfusion • (3) Any Grade 3 or higher non-hematological toxicity with the exception of: • a) Abnormal clinical laboratory values with no clinical significance. • b) Any events which can be managed and controlled to Grade 2 or less by maximal medical management. • (4) New calcification that is considered clinically significance in such as soft tissue, kidney, intestine, heart or lung confirmed by images • (5) Hyperphosphatemia defined as follows • a) >7 mg/dL>7d despite phosphate lowering therapies • b) >9 mg/dL despite phosphate lowering therapies. • (6) Development of any toxicity that is considered to be related to Compound A and where treatment interruption for 8 days or more from Cycle 0 to Cycle 1 is necessary.
The MTD was not defined and the recommended dose was determined to be 140 mg once daily.

[2] = test system: stomach cancer, lung cancer, bladder cancer, endometrial cancer, bile duct cancer, breast cancer; details: endometrial cancer (PTL 1), bile duct cancer (PTL 2), breast cancer (PTL 3); cited from earlier work
[3] = test system: fibroblast growth factor receptors (FGFRs) 1, 2 and 3; details: reported in PTL 1; cited from earlier work
[4] = test system: FGFR2 gene amplified diffused type gastric cancer; assay: Anti-tumor activity, tumor size on CT images, patient; format: in vivo, human; details: 180 mg once daily, one patient, Day 1 of Cycle 3 vs before administration
Procedure: Compound A was administered once daily at 180 mg to a patient with FGFR2 gene amplified diffused type gastric cancer (poorly differentiated adenocarcinoma). The left image is that before the administration and the right image is that on Day 1 of Cycle 3.

FGFR pathway = assay: Pharmacodynamics: serum Phosphate, FGF23 and 1,25-(OH)2-Vitamin D, PD markers of FGFR pathway inhibition; format: in vivo, human
Procedure: Serum concentrations of Phosphate, FGF23 and 1,25-(OH)2-Vitamin D, PD markers of FGFR pathway inhibition were measured before the administration of Compound A and on Day 15 of Cycle 1.

In the case of `CNC(=O)n1ccc2cc(Oc3ccnc(NC(=O)c4ccc(C5CCN(CCO)CC5)cc4)c3)c(OCCOC)cc21` [Compound A, 5-((2-(4-(1-(2-hydroxyethyl)piperidin-4-yl)benzamide)pyridin-4-yl)oxy)-6-(2-methoxyethoxy)-N-methyl-1H-indole-1-carboxamide], the “death or adverse events leading to study drug withdrawal” value ([1]; all cohorts) is reported as “No death or adverse events leading to study drug withdrawal were reported”, the “ALP increased, Any Gr, n (%)” value ([1]; human, in vivo) is reported as 3 (13) and the “AST increased, Any Gr, n (%)” value ([1]; human, in vivo) is reported as 4 (17). For the same compound, the “ATL increased, Any Gr, n (%)” value ([1]; human, in vivo) was 6 (25), the “ATL increased, ≥Gr3, n (%)” value ([1]; human, in vivo) was 2 (8) and the “Anaemia, Any Gr, n (%)” value ([1]; human, in vivo) was 3 (13). For the same compound, the “Constipation, Any Gr, n (%)” value ([1]; human, in vivo) was 2 (8), the “Creatinine increased, Any Gr, n (%)” value ([1]; human, in vivo) was 9 (38) and the “Decreased appetite, Any Gr, n (%)” value ([1]; human, in vivo) was 2 (8). The “Decreased appetite, ≥Gr3, n (%)” value ([1]; human, in vivo) was 1 (4), the “Diarrhoea, Any Gr, n (%)” value ([1]; human, in vivo) was 6 (25) and the “Dysgeusia, Any Gr, n (%)” value ([1]; human, in vivo) was 3 (13). For the same compound, the “Hyperphosphatemia, Any Gr, n (%)” value ([1]; human, in vivo) was 9 (38), the “Lipase increased, Any Gr, n (%)” value ([1]; human, in vivo) was 5 (21) and the “Lymphocyte count decreased, Any Gr, n (%)” value ([1]; human, in vivo) was 2 (8). For the same compound, the “Malaise, Any Gr, n (%)” value ([1]; human, in vivo) was 2 (8), the “Nausea, Any Gr, n (%)” value ([1]; human, in vivo) was 5 (21) and the “Neutrophil count decreased, Any Gr, n (%)” value ([1]; human, in vivo) was 2 (8). The “Neutrophil count decreased, ≥Gr3, n (%)” value ([1]; human, in vivo) was 1 (4), the “Onychomadesis, Any Gr, n (%)” value ([1]; human, in vivo) was 2 (8) and the “PPE syndrome, Any Gr, n (%)” value ([1]; human, in vivo) was 4 (17). The “Retinal detachment, Any Gr, n (%)” value ([1]; human, in vivo) was 3 (13), the “Stomatitis, Any Gr, n (%)” value ([1]; human, in vivo) was 2 (8) and the “Vomiting, Any Gr, n (%)” value ([1]; human, in vivo) was 3 (13). The “Vomiting, ≥Gr3, n (%)” value ([1]; human, in vivo) was 1 (4), the “White blood cell count decreased, Any Gr, n (%)” value ([1]; human, in vivo) was 2 (8) and the “adverse events leading to dose interruptions: anorexia” value ([1]; human, in vivo) was 2 patients. The “adverse events leading to dose interruptions: common cold” value ([1]; human, in vivo) was 1 patient, the “adverse events leading to dose interruptions: macular edema” value ([1]; human, in vivo) was 1 patient and the “adverse events leading to dose interruptions: nausea” value ([1]; human, in vivo) was 3 patients. For the same compound, the “adverse events leading to dose interruptions: neutrophil count decreased” value ([1]; human, in vivo) was 1 patient, the “adverse events leading to dose interruptions: palmar-plantar erythrodysesthesia syndrome” value ([1]; human, in vivo) was 1 patient and the “adverse events leading to dose interruptions: pyrexia” value ([1]; human, in vivo) was 2 patients. The “adverse events leading to dose interruptions: vomiting” value ([1]; human, in vivo) was 2 patients, the “adverse events leading to dose reductions: ALT increased” value ([1]; human, in vivo) was 2 patients and the “adverse events leading to dose reductions: AST increased” value ([1]; human, in vivo) was 1 patient. For the same compound, the “adverse events leading to dose reductions: palmar-plantar erythrodysesthesia syndrome” value ([1]; human, in vivo) was 2 patients, the “dose limiting toxicity (DLT)” value ([1]; human, in vivo) was “one patient at 180 mg dosing experienced the DLT (Grade 3 AST/ALT increased)” and the recommended dose ([1]; human, in vivo) was 140 mg. For the same compound, the “relation of serious adverse events to study drug” value ([1]; human, in vivo) was “none of them were considered to be related to Compound A”, the “maximum tolerated dose (MTD)” value ([1]; once-daily dosing up to 180 mg) was “not defined” and the “cell growth suppressing activity” value [2] was “has a cell growth suppressing activity”. The “inhibitory activity on FGFRs 1, 2 and 3” value [3] was “has an inhibitory activity”, the tumor size [4] was “reduced significantly” and the “once-daily dosing at which increases of PD markers reached maximum” value (FGFR pathway; Day 15 of Cycle 1) was 100 to 140 mg. For the same compound, the “change in serum Phosphate, FGF23 and 1,25-(OH)2-Vitamin D” value (FGFR pathway; Day 15 of Cycle 1 vs before administration) was “dose-dependent increases in each marker”.
